Molecules are shown by their SMILES. Like-named read-outs stand apart in the source and are kept apart here.

The text below walks through data of patent publication US8338465B2, “Cyclic carboxylic acid rhodanine derivatives for the treatment and prevention of tuberculosis” (priority 2006, dated 2012).

The test deals with T1, dihydrolipoamide acyltransferase (DlaT) (Mycobacterium tuberculosis, UniProt P9WIS7).
T1 sequence (P9WIS7 1-553): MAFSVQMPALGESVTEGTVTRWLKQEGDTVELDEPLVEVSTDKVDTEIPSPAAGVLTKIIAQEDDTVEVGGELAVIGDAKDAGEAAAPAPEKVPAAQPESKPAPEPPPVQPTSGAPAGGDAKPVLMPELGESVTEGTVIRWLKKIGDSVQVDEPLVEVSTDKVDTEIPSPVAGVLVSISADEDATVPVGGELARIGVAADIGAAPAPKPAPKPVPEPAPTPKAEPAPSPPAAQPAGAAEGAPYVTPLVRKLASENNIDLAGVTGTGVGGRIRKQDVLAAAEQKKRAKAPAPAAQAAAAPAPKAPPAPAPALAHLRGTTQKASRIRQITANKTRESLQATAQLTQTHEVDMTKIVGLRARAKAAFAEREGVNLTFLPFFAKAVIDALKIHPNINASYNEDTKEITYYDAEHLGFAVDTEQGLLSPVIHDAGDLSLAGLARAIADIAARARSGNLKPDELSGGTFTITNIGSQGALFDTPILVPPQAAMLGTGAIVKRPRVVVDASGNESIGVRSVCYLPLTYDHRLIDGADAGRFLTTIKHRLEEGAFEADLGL
The test is described as follows: DlaT inhibition (Dlat IC50); DTNB peroxidase assay with Lpd, DlaT and AhpD. Type of test: biochemical.

[1] abbreviates: Table 1, Compounds A1 to A294, read-out: Dlat IC50 category.
Where [2] appears, read: Dlat IC50 category, Table 20, Prodrugs (Compounds T1 to T8).

Consider `O=C(O)c1cc(N2C(=O)C(=Cc3ccc(-c4ccccc4Cl)o3)SC2=S)ccc1O` [Compound A33], for which, under setting [1], the IC50 was less than 10 µM.

Turning to `CS(=O)(=O)c1ccc(-c2ccc(C=C3SC(=S)N(c4cccc(C(=O)O)c4)C3=O)o2)cc1` [Compound A228], the IC50 under setting [1] is less than 10 µM.

Compound `CC(C(=O)O)N1C(=O)C(=Cc2ccc(-c3ccccc3Cl)o2)SC1=S` (stereo not drawn) [Compound B94] showed a concentration for half-maximal inhibition (IC50) (Dlat IC50 category) of 11 to 40 µM.

In the case of `O=C(O)c1cccc(N2C(=O)C(=Cc3ccc(-c4cc(C(F)(F)F)ccc4Cl)o3)SC2=S)c1` [Compound A44], under setting [1], the IC50 is less than 10 µM.

For `COc1ccccc1-c1ccc(C=C2SC(=S)N(c3cc(C(=O)O)ccc3F)C2=O)o1` [Compound A139], the concentration for half-maximal inhibition (IC50) under setting [1] is less than 10 µM.

For `COc1ccc(C(=O)O)cc1N1C(=O)C(=Cc2ccc(-c3ccc(C(C)(C)c4ccccc4)cc3)o2)SC1=S` [Compound A97], under setting [1], the IC50 was in the range of 11 to 40 µM.

Regarding `O=C(O)c1cc(N2C(=O)C(=Cc3ccc(-c4ccc(CSc5ccccc5)cc4)o3)SC2=S)ccc1O` [Compound A62], under setting [1], the IC50 was 11 to 40 µM.

Turning to `Cc1ccc(-c2ccc(C=C3SC(=S)N(C4CCCC(C(=O)O)C4)C3=O)o2)cc1` (stereo not drawn) [Compound C14, 3-{4-oxo-2-thioxo-5-[1-(5-p-tolyl-furan-2-yl)-methylidene]-thiazolidin-3-yl}-cyclohexanecarboxylic acid], for the setting “Dlat IC50 category”, the half-maximal inhibitory concentration (IC50) was less than 10 µM.

Consider `O=C1C(=Cc2ccc(-c3ccc(Cl)cc3)o2)SC(=S)N1c1ccc(O)cc1` [Compound A24], for which the IC50 under setting [1] is less than 10 µM.

The compound `CC(=O)Nc1ccc(-c2ccc(C=C3SC(=S)N(C4CCC(C(=O)O)CC4)C3=O)o2)cc1` (stereo not drawn) [Compound C76, 4-{5-[1-[5-(4-acetylamino-phenyl)-furan-2-yl]-methylidene]-4-oxo-2-thioxo-thiazolidin-3-yl}-cyclohexanecarboxylic acid] displayed an IC50 (Dlat IC50 category) of less than 10 µM.

In turn, `O=C(O)C(Cc1ccccc1)N1C(=O)C(=Cc2ccc(-c3ccc(Cc4ccccc4)cc3)o2)SC1=S` (stereo not drawn) [Compound B57] showed an IC50 (Dlat IC50 category) of less than 10 µM.

For the compound `CN(C)c1ccc(-c2ccc(C=C3SC(=S)N(c4cc(C(=O)O)ccc4F)C3=O)o2)cc1` [Compound A191], the IC50 under setting [1] was less than 10 µM.

As to `O=C(O)C(Cc1ccc(O)c(O)c1)N1C(=O)C(=Cc2ccc(-c3cc(C(F)(F)F)ccc3Cl)o2)SC1=S` (stereo not drawn) [Compound B65], the IC50 (Dlat IC50 category) is less than 10 µM.

As to `Cc1ccc(-c2ccc(C=C3SC(=S)N(c4cccc(C(=O)O)c4)C3=O)o2)cc1` [Compound A147], under setting [1], the IC50 lay in the range of 11 to 40 µM.

For the compound `Cc1ccccc1-c1ccc(C=C2SC(=S)N(c3cc(C(=O)O)ccc3F)C2=O)o1` [Compound A144], the half-inhibitory concentration (IC50) under setting [1] was less than 10 µM.

In the case of `O=C(O)C1CCCC(N2C(=O)C(=Cc3ccc(-c4ccccc4O)o3)SC2=S)C1` (stereo not drawn) [Compound C13, 3-{5-[1-[5-(2-hydroxy-phenyl)-furan-2-yl]-methylidene]-4-oxo-2-thioxo-thiazolidin-3-yl}-cyclohexanecarboxylic acid], the IC50 (Dlat IC50 category) was less than 10 µM.

In the case of `O=C(NC(CO)(CO)CO)c1cccc(N2C(=O)C(=Cc3ccc(-c4ccccc4Cl)o3)SC2=S)c1` [Compound T6, 3-{5-[1-[5-(2-Chloro-phenyl)-furan-2-yl]-methylidene]-4-oxo-2-thioxo-thiazolidin-3-yl}-N-(2-hydroxy-1,1-bis-hydroxymethyl-ethyl)-benzamide], the half-maximal inhibitory concentration (IC50) under setting [2] was 11 to 40 µM.

Take `O=C1C(=Cc2ccc(-c3cccc(C(F)(F)F)c3)o2)SC(=S)N1c1cccc(O)c1` [Compound A50]: under setting [1], the concentration for half-maximal inhibition (IC50) fell in the range of 11 to 40 µM.

Regarding `COc1cc(F)ccc1-c1ccc(C=C2SC(=S)N(Nc3ccccc3C(=O)O)C2=O)o1` [Compound D25, 2-{5-[1-[5-(4-fluoro-2-methoxy-phenyl)-furan-2-yl]-methylidene]-4-oxo-2-thioxo-thiazolidin-3-ylamino}-benzoic acid], the 50% inhibitory concentration (IC50) (Dlat IC50 category) was less than 10 µM.

The compound `O=C(O)C(Cc1ccccc1)N1C(=O)C(=Cc2ccc(-c3cccc(C(F)(F)F)c3)o2)SC1=S` (stereo not drawn) [Compound B40] returned a half-inhibitory concentration (IC50) (Dlat IC50 category) of less than 10 µM.

For `O=C(O)c1cc(N2C(=O)C(=Cc3ccc(-c4ccc(Cl)cc4)o3)SC2=S)cc(C(F)(F)F)c1` [Compound A223], the IC50 under setting [1] was 11 to 40 µM.

For `O=C(O)c1ccc(-c2ccc(C=C3SC(=S)N(c4ccc(O)cc4)C3=O)o2)cc1` [Compound A291], the concentration for half-maximal inhibition (IC50) under setting [1] was less than 10 µM.

The compound `CC(C)C(C(=O)O)N1C(=O)C(=Cc2ccc(-c3cccc(C(F)(F)F)c3)o2)SC1=S` (stereo not drawn) [Compound B105] showed a half-maximal inhibitory concentration (IC50) (Dlat IC50 category) of 11 to 40 µM.

In the case of `COc1ccccc1-c1ccc(C=C2SC(=S)N(c3cccc(C(=O)O)c3C)C2=O)o1` [Compound A142], under setting [1], the 50% inhibitory concentration (IC50) was less than 10 µM.

`O=C(OCCCCOP(=O)(O)O)c1cccc(N2C(=O)C(=Cc3ccc(-c4ccccc4Cl)o3)SC2=S)c1` [Compound T3, 3-{5-[1-[5-(2-Chloro-phenyl)-furan-2-yl]-methylidene]-4-oxo-2-thioxo-thiazolidin-3-yl}-benzoic acid 4-phosphonooxy-butyl ester]: the IC50 under setting [2] was 41 to 80 µM.

On to `NS(=O)(=O)c1cccc(N2C(=O)C(=Cc3ccc(-c4ccccc4Cl)o3)SC2=S)c1` [Compound A25], for which the IC50 under setting [1] is 11 to 40 µM.

Consider `CCCCOc1ccc(-c2ccc(C=C3SC(=S)N(c4cc(C(=O)O)ccc4F)C3=O)o2)cc1` [Compound A227], for which, under setting [1], the IC50 is 11 to 40 µM.

`O=C(O)CN1C(=O)C(=Cc2ccc(-c3cc(C(F)(F)F)ccc3Cl)o2)SC1=S` [Compound B61] returned an IC50 (Dlat IC50 category) of less than 10 µM.

The compound `Cc1cc(N(C)C)ccc1-c1ccc(C=C2SC(=S)N(CCCC(=O)O)C2=O)o1` [Compound B92] registered a half-maximal inhibitory concentration (IC50) (Dlat IC50 category) of 11 to 40 µM.

For the setting “Dlat IC50 category”, `O=C(O)C1CCCC(N2C(=O)C(=Cc3ccc(-c4ccccc4Cl)o3)SC2=S)C1` (stereo not drawn) [Compound C1, 3-{5-[1-[5-(2-chloro-phenyl)-furan-2-yl]-methylidene]-4-oxo-2-thioxo-thiazolidin-3-yl}-cyclohexanecarboxylic acid] came in with an IC50 of 11 to 40 µM.

As for `O=C(O)C(Cc1ccc(O)cc1)N1C(=O)C(=Cc2ccc(-c3ccc(Cl)cc3)o2)SC1=S` (stereo not drawn) [Compound B53], the IC50 (Dlat IC50 category) is less than 10 µM.

With `O=C(O)c1ccc(F)c(N2C(=O)C(=Cc3ccc(-c4ccc(Cl)cc4)o3)SC2=S)c1` [Compound A104], the half-inhibitory concentration (IC50) under setting [1] is less than 10 µM.

As for `O=C(O)C1CCC(N2C(=O)C(=Cc3ccc(-c4ccccc4F)o3)SC2=S)CC1` (stereo not drawn) [Compound C44, 4-{5-[1-[5-(2-fluoro-phenyl)-furan-2-yl]-methylidene]-4-oxo-2-thioxo-thiazolidin-3-yl}-cyclohexanecarboxylic acid], the IC50 (Dlat IC50 category) was less than 10 µM.

For `Cc1ccccc1-c1ccc(C=C2SC(=S)N(c3cc(C(=O)O)ccc3F)C2=O)s1` [Compound A188], the half-maximal inhibitory concentration (IC50) under setting [1] is less than 10 µM.

`Cc1ccccc1-c1ccc(C=C2SC(=S)N(C(C(=O)O)C(C)C)C2=O)o1` (stereo not drawn) [Compound B106] registered an IC50 (Dlat IC50 category) of 11 to 40 µM.

`CSc1ccccc1-c1ccc(C=C2SC(=S)N(C3CCCC(C(=O)O)C3)C2=O)o1` (stereo not drawn) [Compound C30, 3-{5-[1-[5-(2-methylsulfanyl-phenyl)-furan-2-yl]-methylidene]-4-oxo-2-thioxo-thiazolidin-3-yl}-cyclohexanecarboxylic acid]: the IC50 (Dlat IC50 category) was less than 10 µM.

`NS(=O)(=O)c1ccc(N2C(=O)C(=Cc3ccc(-c4ccccc4Cl)o3)SC2=S)cc1` [Compound A6]: the concentration for half-maximal inhibition (IC50) under setting [1] lay within 11 to 40 µM.

Take `CCCc1ccc(-c2ccc(C=C3SC(=S)N(c4cccc(C(=O)O)c4)C3=O)o2)cc1` [Compound A269]: the IC50 under setting [1] is less than 10 µM.

Consider `O=C(O)c1ccc(N2C(=O)C(=Cc3ccc(-c4ccc(Cl)c(Cl)c4)o3)SC2=S)cc1` [Compound A8], for which the IC50 under setting [1] was less than 10 µM.

`O=C(O)CCN1C(=O)C(=Cc2ccc(-c3ccccc3Cl)o2)SC1=S` [Compound B5]: under “Dlat IC50 category”, the IC50 was 11 to 40 µM.

Compound `O=C(O)c1ccc(N2C(=O)C(=Cc3ccc(-c4cncnc4)o3)SC2=S)cc1` [Compound Q2] registered a concentration for half-maximal inhibition (IC50) (Dlat IC50 category, Table 17, Compounds Q1 to Q9) of 11 to 40 µM.

On to `O=C(O)C(c1ccccc1)N1C(=O)C(=Cc2ccc(-c3cccc(C(F)(F)F)c3)o2)SC1=S` (stereo not drawn) [Compound B50], for which, for the setting “Dlat IC50 category”, the half-inhibitory concentration (IC50) is less than 10 µM.

Compound `Cc1cc(N(C)C)ccc1-c1ccc(C=C2SC(=S)N(Nc3ccccc3C(=O)O)C2=O)o1` [Compound D29, 2-{5-[5-(4-Dimethylamino-2-methyl-phenyl)-furan-2-ylmethylene]-4-oxo-2-thioxo-thiazolidin-3-ylamino}-benzoic acid] showed a concentration for half-maximal inhibition (IC50) (Dlat IC50 category) of 11 to 40 µM.

With `Cc1cccc(C)c1-c1ccc(C=C2SC(=S)N(c3cccc(C(=O)O)c3)C2=O)o1` [Compound A171], the IC50 under setting [1] lay within 11 to 40 µM.

With `Cc1ccccc1-c1ccc(C=C2SC(=S)N(C3CCCC(C(=O)O)C3)C2=O)o1` (stereo not drawn) [Compound C60, 3-{4-oxo-2-thioxo-5-[1-(5-o-tolyl-furan-2-yl)-methylidene]-thiazolidin-3-yl}-cyclohexanecarboxylic acid], the IC50 (Dlat IC50 category) is less than 10 µM.

As to `CN(C)S(=O)(=O)c1ccc(-c2ccc(C=C3SC(=S)N(C4CCC(C(=O)O)CC4)C3=O)o2)cc1` (stereo not drawn) [Compound C86, 4-{5-[5-(4-Dimethylsulfamoyl-phenyl)-furan-2-ylmethylene]-4-oxo-2-thioxo-thiazolidin-3-yl}-cyclohexanecarboxylic acid], the half-maximal inhibitory concentration (IC50) (Dlat IC50 category) is 11 to 40 µM.

With `Cc1ccc(-c2ccc(C=C3SC(=S)N(c4cc(C(=O)O)ccc4F)C3=O)o2)c(C)c1` [Compound A156], the 50% inhibitory concentration (IC50) under setting [1] was less than 10 µM.

The compound `CC(C)C(C(=O)O)N1C(=O)C(=Cc2ccc(-c3ccccc3C(F)(F)F)o2)SC1=S` (stereo not drawn) [Compound B104] registered a half-inhibitory concentration (IC50) (Dlat IC50 category) of less than 10 µM.

Broadly, the IC50 is the concentration at which inhibition is half-maximal.
